Results on 14 molecules are retold here after patent US20250221988A1 (Cullgen (Shanghai), Inc., priority 2022, published 2025).

Read-outs that look alike come from different tables or passages of the source. Where only a bound is given, the exact number is not on record here.

One experiment relates to MOLM-13 cells. As to the kind of experiment: Cell viability assay (CellTiter-Glo) in MOLM-13 cells. In kind it is cell-based. How it is done:
(§1) Cell Culture: RS4;11, MV4;11, MOLM-13 and other cells were cultured at 37° C. with 5% CO2 in RPMI 1640 or DMEM Medium supplemented with 10% fetal bovine serum. Cells were authenticated using the short tandem repeat (STR) assays. Mycoplasma test results were negative.
Cell viability assays: Cells were seeded at a density of 5000 cells per well in 96-well assay plates and treated with test compounds following a 8-point or 12-point 3-fold serial dilution. Three days later, cell viability was determined using the CellTiter-Glo assay kit according to the manufacturer's instructions. The dose-response curves were determined and IC50 values were calculated using the GraphPad Prism software following a nonlinear regression (least squares fit) method. […]

The subject of another experiment is MV4;11 cells. The experiment can be described thus: Cell viability assay (CellTiter-Glo) in MV4;11 cells. In kind it is cell-based. As to conditions: read-out: MV4. How it is done:
as §1
Cell viability assays: Cells were seeded at a density of 5000 cells per well in 96-well assay plates and treated with test compounds following a 8-point or 12-point 3-fold serial dilution. Three days later, cell viability was determined using the CellTiter-Glo assay kit according to the manufacturer's instructions. The dose-response curves were determined and IC50 values were calculated using the GraphPad Prism software following a nonlinear regression (least squares fit) method.
The IC50 values (nM) of each compound were determined in MV4;11 and MOLM-13 cells with or without gilteritinib (10 nM for MV4;11; and 20 nM for MOML-13) as described in the Materials and Methods subsection and calculated using the GraphPad Prism 5.0 software.

[1] abbreviates: Homo sapiens, 72 h, MOLM-13 cells, compound alone, three days, read-out: MOLM-13 IC50.
Setting [2] is: MOLM-13 cells, with gilteritinib, three days, read-out: MOLM-13 IC50 (nM) + 10 nM Gil.
The mark [3] stands for this setting: Homo sapiens, MV4-11, 72 h, MV4;11 cells, compound alone, three days, 11 IC50.
The mark [4] stands for this setting: MV4;11 cells, with 10 nM gilteritinib, three days, 11 IC50 (nM) + 10 nM Gil.
Where [5] appears, read: Homo sapiens, MOLM-13, 72 h, read-out: MOLM-13 IC50 (nM).
Where [6] appears, read: read-out: MOLM-13 IC50 (nM) + 10 nM Gil, MOLM-13 cells, with gilteritinib, three days.
The mark [7] stands for this setting: Homo sapiens, MV4-11, 72 h, 11 IC50 (nM).
Where [8] appears, read: 11 IC50 (nM) + 10 nM Gil, MV4;11 cells, with 10 nM gilteritinib, three days.

For the molecule `O=C1CCC(N2C(=O)c3ccc(NC[C@H]4C[C@H](n5cc(-c6ccccc6C6CCNCC6)c(C6CC6)n5)C4)cc3C2=O)C(=O)N1` (stereo partly drawn) [GS-654, 5-(((Trans-3-(3-cyclopropyl-4-(2-(piperidin-4-yl)phenyl)-1H-pyrazol-1-yl)cyclobutyl)methyl)amino)-2-(2,6-dioxopiperidin-3-yl)isoindoline-1,3-dione], the IC50 in the experiment on MOLM-13 cells (setting [1]) was 100 to 1000 nM; in the experiment with MOLM-13 cells (setting [2]), 100 to 1000 nM; in the experiment on MV4;11 cells (setting [3]), over 1000 nM; with MV4;11 cells (setting [4]) it was 10 to 100 nM.

In the case of `CN1CC(c2ccc3ncc(-c4cn([C@H]5C[C@H](CNc6ccc7c(c6)C(=O)N(C6CCC(=O)NC6=O)C7=O)C5)nc4C4CC4)nc3c2)C1` (stereo partly drawn) [GS-655, 5-(((Trans-3-(3-cyclopropyl-4-(7-(1-methylazetidin-3-yl)quinoxalin-2-yl)-1H-pyrazol-1-yl)cyclobutyl)methyl)amino)-2-(2,6-dioxopiperidin-3-yl)isoindoline-1,3-dione], the IC50 is over 1000 nM in the experiment with MOLM-13 cells (setting [1]), 100 to 1000 nM in the experiment on MOLM-13 cells (setting [2]), 100 to 1000 nM in the experiment on MV4;11 cells (setting [3]) and 10 to 100 nM in the experiment with MV4;11 cells (setting [4]).

For `CC(C)n1ncc2cnc(-c3cn([C@H]4C[C@H](CNc5ccc6c(c5)C(=O)N(C5CCC(=O)NC5=O)C6=O)C4)nc3C(F)F)cc21` (stereo partly drawn) [GS-656, 5-(((Trans-3-(3-(difluoromethyl)-4-(1-isopropyl-1H-pyrazolo[4,3-c]pyridin-6-yl)-1H-pyrazol-1-yl)cyclobutyl)methyl)amino)-2-(2,6-dioxopiperidin-3-yl)isoindoline-1,3-dione], the IC50 with MOLM-13 cells (setting [1]) fell in the range of 100 to 1000 nM; in the experiment on MOLM-13 cells (setting [2]) it was 10 to 100 nM; in the experiment on MV4;11 cells (setting [3]), 10 to 100 nM; in the experiment with MV4;11 cells (setting [4]), 10 to 100 nM.

In the case of `Cn1ncc2cnc(-c3cn([C@H]4C[C@H](CNc5ccc6c(c5)C(=O)N(C5CCC(=O)NC5=O)C6=O)C4)nc3C(F)F)cc21` (stereo partly drawn) [GS-657, 5-(((Trans-3-(3-(difluoromethyl)-4-(1-methyl-1H-pyrazolo[4,3-c]pyridin-6-yl)-1H-pyrazol-1-yl)cyclobutyl)methyl)amino)-2-(2,6-dioxopiperidin-3-yl)isoindoline-1,3-dione], the IC50 in the experiment on MOLM-13 cells (setting [1]) was 10 to 100 nM; in the experiment on MOLM-13 cells (setting [2]), under 10 nM; in the experiment with MV4;11 cells (setting [3]), 10 to 100 nM; in the experiment on MV4;11 cells (setting [4]) it was under 10 nM.

In the case of `Cn1cnc2cnc(-c3cn([C@H]4C[C@H](CNc5ccc6c(c5)C(=O)N(C5CCC(=O)NC5=O)C6=O)C4)nc3C3CC3)cc21` (stereo partly drawn) [GS-658, 5-(((Trans-3-(3-cyclopropyl-4-(1-methyl-1H-imidazo[4,5-c]pyridin-6-yl)-1H-pyrazol-1-yl)cyclobutyl)methyl)amino)-2-(2,6-dioxopiperidin-3-yl)isoindoline-1,3-dione], the IC50 in the experiment with MOLM-13 cells (setting [1]) was over 1000 nM; in the experiment with MOLM-13 cells (setting [2]) it was 100 to 1000 nM; in the experiment with MV4;11 cells (setting [3]), over 1000 nM; with MV4;11 cells (setting [4]), 100 to 1000 nM.

In the case of `O=C1CCC(N2C(=O)c3ccc(NC[C@H]4C[C@H](n5cc(-c6cnc7ccc(N8CCC(O)C8)cc7n6)c(C6CC6)n5)C4)cc3C2=O)C(=O)N1` (stereo partly drawn) [GS-659, 5-(((Trans-3-(3-cyclopropyl-4-(7-(3-hydroxypyrrolidin-1-yl)quinoxalin-2-yl)-1H-pyrazol-1-yl)cyclobutyl)methyl)amino)-2-(2,6-dioxopiperidin-3-yl)isoindoline-1,3-dione], the IC50 in the experiment on MOLM-13 cells (setting [1]), with MOLM-13 cells (setting [2]), with MV4;11 cells (setting [3]) and with MV4;11 cells (setting [4]) was under 10 nM throughout.

Take `CC(C)n1cc2ccnc(-c3cn([C@H]4C[C@H](CNc5ccc6c(c5)C(=O)N(C5CCC(=O)NC5=O)C6=O)C4)nc3C3CC3)c2n1` (stereo partly drawn) [GS-660, 5-(((Trans-3-(3-cyclopropyl-4-(2-isopropyl-2H-pyrazolo[3,4-c]pyridin-7-yl)-1H-pyrazol-1-yl)cyclobutyl)methyl)amino)-2-(2,6-dioxopiperidin-3-yl)isoindoline-1,3-dione]: the IC50 in the experiment on MOLM-13 cells (setting [1]), in the experiment on MOLM-13 cells (setting [2]), in the experiment with MV4;11 cells (setting [3]) and in the experiment with MV4;11 cells (setting [4]) was under 10 nM throughout.

`CC(C)n1ncc2ccnc(-c3cn([C@H]4C[C@H](CNc5ccc6c(c5)C(=O)N(C5CCC(=O)NC5=O)C6=O)C4)nc3C3CC3)c21` (stereo partly drawn) [GS-661, 5-(((Trans-3-(3-cyclopropyl-4-(1-isopropyl-1H-pyrazolo[3,4-c]pyridin-7-yl)-1H-pyrazol-1-yl)cyclobutyl)methyl)amino)-2-(2,6-dioxopiperidin-3-yl)isoindoline-1,3-dion]: the IC50 is 10 to 100 nM in the experiment with MOLM-13 cells (setting [5]), under 10 nM in the experiment on MOLM-13 cells (setting [6]), 10 to 100 nM in the experiment on MV4;11 cells (setting [7]) and under 10 nM in the experiment with MV4;11 cells (setting [8]).

In the case of `O=C1CCC(N2Cc3ccc(NC[C@H]4C[C@H](n5cc(-c6cnc7ccccc7n6)c(C6CC6)n5)C4)cc3C2=O)C(=O)N1` (stereo partly drawn) [GS-662, 3-(6-(((Trans-3-(3-cyclopropyl-4-(quinoxalin-2-yl)-1H-pyrazol-1-yl)cyclobutyl)methyl)amino)-1-oxoisoindolin-2-yl)piperidine-2,6-dione], the IC50 in the experiment with MOLM-13 cells (setting [1]) and in the experiment with MV4;11 cells (setting [3]) was over 1000 nM throughout.

With `O=C1CCC(N2C(=O)c3ccc(NC[C@H]4C[C@H](n5nc(C6CC6)c6cncnc65)C4)cc3C2=O)C(=O)N1` (stereo partly drawn) [GS-663, 5-(((Trans-3-(3-cyclopropyl-1H-pyrazolo[3,4-d]pyrimidin-1-yl)cyclobutyl)methyl)amino)-2-(2,6-dioxopiperidin-3-yl)isoindoline-1,3-dione], the figures for the IC50 with MOLM-13 cells (setting [1]), with MOLM-13 cells (setting [2]) and in the experiment with MV4;11 cells (setting [3]) were over 1000 nM, 100 to 1000 nM and over 1000 nM, respectively.

With `CC(C)n1cnc2cnc(-c3cn([C@H]4C[C@H](CNc5ccc6c(c5)C(=O)N(C5CCC(=O)NC5=O)C6=O)C4)nc3C3CC3)cc21` (stereo partly drawn) [GS-664, 5-(((Trans-3-(3-cyclopropyl-4-(1-isopropyl-1H-imidazo[4,5-c]pyridin-6-yl)-1H-pyrazol-1-yl)cyclobutyl)methyl)amino)-2-(2,6-dioxopiperidin-3-yl)isoindoline-1,3-dione], the IC50 in the experiment on MOLM-13 cells (setting [5]) is over 1000 nM; in the experiment on MOLM-13 cells (setting [6]) it was 100 to 1000 nM; with MV4;11 cells (setting [7]), over 1000 nM; in the experiment on MV4;11 cells (setting [8]), 100 to 1000 nM.

As to `O=C1CCC(N2C(=O)c3ccc(NC[C@H]4C[C@H](n5cc(-c6ncccc6C6CCNCC6)c(C6CC6)n5)C4)cc3C2=O)C(=O)N1` (stereo partly drawn) [GS-665, 5-(((Trans-3-(3-cyclopropyl-4-(3-(piperidin-4-yl)pyridin-2-yl)-1H-pyrazol-1-yl)cyclobutyl)methyl)amino)-2-(2,6-dioxopiperidin-3-yl)isoindoline-1,3-dione], the IC50 in the experiment on MOLM-13 cells (setting [1]) and in the experiment with MV4;11 cells (setting [3]) was over 1000 nM throughout.

`CN1CCC(Nc2cn([C@H]3C[C@H](CNc4ccc5c(c4)C(=O)N(C4CCC(=O)NC4=O)C5=O)C3)nc2C2CC2)CC1` (stereo partly drawn) [GS-666, 5-(((Trans-3-(3-cyclopropyl-4-((1-methylpiperidin-4-yl)amino)-1H-pyrazol-1-yl)cyclobutyl)methyl)amino)-2-(2,6-dioxopiperidin-3-yl)isoindoline-1,3-dione]: the IC50 with MOLM-13 cells (setting [1]) and with MV4;11 cells (setting [3]) was over 1000 nM each time.

For `O=C1CCC(N2C(=O)c3ccc(NC[C@H]4C[C@H](n5cc(NC6CCCCC6)c(C6CC6)n5)C4)cc3C2=O)C(=O)N1` (stereo partly drawn) [GS-667, 5-(((Trans-3-(4-(cyclohexylamino)-3-cyclopropyl-1H-pyrazol-1-yl)cyclobutyl)methyl)amino)-2-(2,6-dioxopiperidin-3-yl)isoindoline-1,3-dione], the IC50 with MOLM-13 cells (setting [5]) is 10 to 100 nM; with MOLM-13 cells (setting [6]), 10 to 100 nM; in the experiment with MV4;11 cells (setting [7]), 10 to 100 nM; in the experiment on MV4;11 cells (setting [8]), under 10 nM.
